Target: T1, wild-type (WT) Octβ2R (Drosophila melanogaster, UniProt Q4LBB9)
T1 sequence (Q4LBB9 1-536): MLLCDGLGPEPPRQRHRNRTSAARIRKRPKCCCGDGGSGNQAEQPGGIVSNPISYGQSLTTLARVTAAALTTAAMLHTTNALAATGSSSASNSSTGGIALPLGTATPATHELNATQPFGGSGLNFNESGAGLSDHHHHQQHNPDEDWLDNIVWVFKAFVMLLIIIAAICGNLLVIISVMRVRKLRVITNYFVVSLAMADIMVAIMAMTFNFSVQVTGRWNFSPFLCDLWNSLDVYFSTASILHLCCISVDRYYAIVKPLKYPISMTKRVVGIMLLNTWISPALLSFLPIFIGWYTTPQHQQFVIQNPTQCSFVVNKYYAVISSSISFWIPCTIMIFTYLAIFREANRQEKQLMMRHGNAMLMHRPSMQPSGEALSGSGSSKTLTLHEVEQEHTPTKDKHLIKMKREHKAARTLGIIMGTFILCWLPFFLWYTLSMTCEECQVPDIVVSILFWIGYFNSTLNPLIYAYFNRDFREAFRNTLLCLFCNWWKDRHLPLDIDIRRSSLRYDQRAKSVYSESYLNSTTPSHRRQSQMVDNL
Assay: Tango β-arrestin assay
Format: cell-based
Details: agonist; OA 1 nM to 100 μM, ~16 h (Tango)

SMILES: NC[C@H](O)c1ccc(O)cc1 [Octopamine]
- Tango β-arrestin assay (HTLA cells); RFlamp cAMP assay (HEK293T): negligible β-arrestin-dependent signaling compared to cells expressing WT Octβ2R, even at high concentrations of OA
